Target: T1, Oxytocin receptor (Homo sapiens, UniProt P30559)
T1 sequence (P30559 whole entry): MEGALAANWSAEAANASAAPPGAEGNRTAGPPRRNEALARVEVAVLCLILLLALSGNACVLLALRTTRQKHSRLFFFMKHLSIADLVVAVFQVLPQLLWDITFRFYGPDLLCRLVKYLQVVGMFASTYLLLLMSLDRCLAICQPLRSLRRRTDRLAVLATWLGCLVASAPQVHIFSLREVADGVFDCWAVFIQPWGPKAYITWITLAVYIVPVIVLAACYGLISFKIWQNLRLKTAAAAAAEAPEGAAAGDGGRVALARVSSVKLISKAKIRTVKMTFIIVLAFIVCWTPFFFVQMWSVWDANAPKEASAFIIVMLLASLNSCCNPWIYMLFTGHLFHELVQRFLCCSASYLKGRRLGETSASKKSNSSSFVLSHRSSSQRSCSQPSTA
Assay: Inhibitory concentration required for antagonist activity against oxytocin receptor
Type: functional

Row | SMILES | IC50
1 | CC(=O)CCCC(=O)NC1N=C(c2ccccc2)c2ccccc2N(CC(=O)N[C@@H](Cc2ccc(Cl)c(Cl)c2)C(N)=O)C1=O (some centres not stated) | 5 nM
2 | CC(=O)CCCC(=O)NC1N=C(c2ccccc2)c2ccccc2N(CC(=O)N[C@@H](Cc2cccs2)C(N)=O)C1=O (some centres not stated) | 1 nM

Reference: ChEMBL document CHEMBL1134063, “Identification of a potent and selective oxytocin antagonist, from screening a fully encoded differential release combinatorial chemical library” (Bioorg Med Chem Lett, 2001)
